# Data reported in publication PMC10126473 (Frontiers in Pharmacology, 2023).
# Tests used:
# [1] = Mouse PK and tissue distribution study (non-compartmental analysis); conditions: mice; for Tmax / half-life: male, C57BL/6, mouse, in vivo, po; for Tmax: Tmax Obs; for half-life: t1/2 Obs
# Description: The in-life study (Animal Study Protocol Number: NIH ORS-51) was conducted at the NIH Animal Facility by the Division of Veterinary Resources (DVR, Bethesda, MD). In this study, 25–35 g male C57BL/6 mice (Charles River Laboratories, Frederick, MD) were used. For the IV groups, 66 mice (33 mice per dosing group, 3 mice per timepoint) were used for a single bolus IV dose of 3 or 10 mg/kg of PDN via tail vein injection. […] The IV and PO doses were selected to obtain a complete concentration profile in plasma and tissues, based on a preliminary study. Animals were not fasted in this study. […] All dosing solutions were freshly prepared on the day of dosing. At designated time points, blood samples were collected, and mice were euthanized with CO2 in accordance with NIH ARAC Guidelines after blood collection. The death was ensured by cervical dislocation or transthoracic puncture. Lung, liver, adipose, brain, heart, small intestine, kidney, skeletal muscle, and spleen samples were obtained from mice. […] Tissue samples were rinsed with cold saline, dried on filtrate paper, weighed, and snap frozen by placing into dry ice after collection. All samples were stored at −80°C until the analysis. All blood samples were collected in K2EDTA tubes and centrifuged at 3000 g for 10 min at 4°C to obtain plasma. Plasma samples were transferred to tubes preloaded with NaF (final concentration at 5 mM in 200 µL plasma) and stored at −80°C until analysis.
# For fat tissue, an additional 3-fold volume of acetonitrile was added to the water homogenate and was vortexed in a shaker for another 30 min.
# A 10 μ aliquot of samples, blank controls (blank plasma or tissue homogenates), quality controls (QC), and standards were added into 200 μ acetonitrile solution with 100 ng/mL tolbutamide (internal standard, IS). All samples were then thoroughly shaken for 5 min to precipitate proteins. The samples were centrifuged at 3000 rpm and 4°C for 30 min. The supernatant was injected for UPLC-MS/MS analysis.
# The mobile phase consisted of 0.1% formic acid in water (A) and 0.1% formic acid in acetonitrile (B), the flow rate was 600 μL/min. […] All analyses were carried out using a Waters Acquity I-Class UPLC interfaced with a Waters Xevo TQ-S mass spectrometer. The mass spectrometer multiple reaction monitoring (MRM) experiment was operated with an ESI source at negative mode with spray voltage of 1 kV, and temperature of 600°C. Both Q1 and Q3 were set at unit resolution. […] The correlation coefficients of the calibration curves were all greater than 0.99. […] The linear range, precision and accuracy of QCs in various tissues and plasma are shown in Supplementary Table S1 and Supplementary Table S2.
# The area under the concentration vs. time curve (AUC) was calculated using the linear trapezoidal method. The terminal rate constant (λ) was obtained from the slope of at least three data points of the apparent terminal phase of the log linear concentration vs. time curve. AUC0–∞ was estimated as the sum of the AUC0–t (where t is the time of the last measurable concentration) and Ct/λ. […] Bioavailability (F) was calculated using ratios of dose-normalized AUC of PO and IV administration.
# [2] = Metabolic stability in plasma; conditions: for Plasma k: human, in vitro
# Description: The incubation was carried out at 37°C for 15, 30, and 60 min. The reaction in plasma or liver microsomes was quenched by adding 200 μL of cold acetonitrile (containing 100 ng/mL tolbutamide as internal standard). After a 20 min centrifugation at 3000 rpm, 4°C, the supernatant was transferred to an analysis plate and analyzed by UPLC-MS/MS as described in Section 2.4.2.
# The substrate disappearance half-life (t1/2) was estimated by regression analysis of the semi-logarithmic (ln Conc vs. time) plots.
# [3] = 10 mg/kg, PO 10 mg/kg PDN, brain
# [4] = 10 mg/kg, PO 10 mg/kg PDN, heart
# [5] = 10 mg/kg, PO 10 mg/kg PDN, intestine
# [6] = 10 mg/kg, PO 10 mg/kg PDN, kidney
# [7] = 10 mg/kg, PO 10 mg/kg PDN, liver
# [8] = 10 mg/kg, PO 10 mg/kg PDN, lung
# [9] = 10 mg/kg, PO 10 mg/kg PDN, muscle
# [10] = 10 mg/kg, PO 10 mg/kg PDN, plasma
# [11] = 10 mg/kg, PO 10 mg/kg PDN, spleen
structure (smiles),measurement,setting,value
O=C(Nc1ccc([N+](=O)[O-])cc1Cl)c1cc(Cl)ccc1OC(=O)N1CCNCC1 [PDN],Tmax,[1]; [3],1.5 h
same,Tmax,[1]; [4],1.5 h
same,Tmax,[1]; [5],0.167 h
same,Tmax,[1]; [6],1.5 h
same,Tmax,[1]; [7],1.5 h
same,Tmax,[1]; [8],1.5 h
same,Tmax,[1]; [9],1.5 h
same,Tmax,[1]; [10],1.5 h
same,Tmax,[1]; [11],1.5 h
same,half-life,"[1]; 10 mg/kg, PO 10 mg/kg PDN, adipose",3.48 h
same,half-life,[1]; [3],2.45 h
same,half-life,[1]; [4],2.16 h
same,half-life,[1]; [5],1.79 h
same,half-life,[1]; [6],2.99 h
same,half-life,[1]; [7],2.36 h
same,half-life,[1]; [8],3.29 h
same,half-life,[1]; [9],2.83 h
same,half-life,[1]; [10],~3.2 h
same,half-life,[1]; [11],3.16 h
same,AUC0-∞ Obs,"[1]; IV 3 mg/kg PDN, adipose",990 (169) h*ng/g
same,AUC0-∞ Obs,"[1]; IV 3 mg/kg PDN, brain",1024 (124) h*ng/g
same,AUC0-∞ Obs,"[1]; IV 3 mg/kg PDN, heart",5676 (481) h*ng/g
same,AUC0-∞ Obs,"[1]; IV 3 mg/kg PDN, intestine",3222 (749) h*ng/g
same,AUC0-∞ Obs,"[1]; IV 3 mg/kg PDN, kidney",9833 (1080) h*ng/g
same,AUC0-∞ Obs,"[1]; IV 3 mg/kg PDN, lung",53071 (4993) h*ng/g
same,AUC0-∞ Obs,"[1]; IV 3 mg/kg PDN, muscle",1828 (221) h*ng/g
same,AUC0-∞ Obs,"[1]; IV 3 mg/kg PDN, spleen",16808 (1242) h*ng/g
same,AUC0-∞ Obs,"[1]; IV 10 mg/kg PDN, brain",5622 (1331) h*ng/g
same,AUC0-∞ Obs,"[1]; IV 10 mg/kg PDN, heart",31647 (6073) h*ng/g
same,AUC0-∞ Obs,"[1]; IV 10 mg/kg PDN, intestine",14586 (1295) h*ng/g
same,AUC0-∞ Obs,"[1]; IV 10 mg/kg PDN, kidney",62371 (6713) h*ng/g
same,AUC0-∞ Obs,"[1]; IV 10 mg/kg PDN, liver",883 (323) h*ng/g
same,AUC0-∞ Obs,"[1]; IV 10 mg/kg PDN, lung",173216 (21722) h*ng/g
same,AUC0-∞ Obs,"[1]; IV 10 mg/kg PDN, muscle",10301 (2999) h*ng/g
same,AUC0-∞ Obs,"[1]; IV 10 mg/kg PDN, spleen",63505 (10129) h*ng/g
same,AUC0-∞ Obs,"[1]; PO 10 mg/kg PDN, adipose",2788 (299) h*ng/g
same,AUC0-∞ Obs,"[1]; PO 10 mg/kg PDN, brain",2741 (488) h*ng/g
same,AUC0-∞ Obs,"[1]; PO 10 mg/kg PDN, heart",10680 (1787) h*ng/g
same,AUC0-∞ Obs,"[1]; PO 10 mg/kg PDN, intestine",37739 (6003) h*ng/g
same,AUC0-∞ Obs,"[1]; PO 10 mg/kg PDN, kidney",40372 (8592) h*ng/g
same,AUC0-∞ Obs,"[1]; PO 10 mg/kg PDN, liver",591 (176) h*ng/g
same,AUC0-∞ Obs,"[1]; PO 10 mg/kg PDN, lung",123875 (23366) h*ng/g
same,AUC0-∞ Obs,"[1]; PO 10 mg/kg PDN, muscle",4005 (814) h*ng/g
same,AUC0-∞ Obs,"[1]; PO 10 mg/kg PDN, spleen",45737 (9727) h*ng/g
same,F (bioavailability) Obs,"[1]; PO 10 mg/kg PDN, 10 mg/kg",85.8%
same,Plasma k,[2]; conversion to Nc,0.00026 s⁻¹
same,Plasma k,[2]; conversion to Others,0.0022 s⁻¹
same,"kin vitro,app, PDN-total (total depletion of PDN)","[2]; human plasma, 37°C",0.0025 ± 0.0013 min⁻¹
